Assay results published in patent publication EP3623369A1, “NOVEL MORPHOLINYL AMINE COMPOUNDS FOR THE TREATMENT OF AUTOIMMUNE DISEASE” (F. Hoffmann-La Roche AG, priority 2018, dated 2020).

Molecular target: T1, human TLR8 (Homo sapiens, UniProt Q9NR97)
T1 sequence (Q9NR97 27-1041): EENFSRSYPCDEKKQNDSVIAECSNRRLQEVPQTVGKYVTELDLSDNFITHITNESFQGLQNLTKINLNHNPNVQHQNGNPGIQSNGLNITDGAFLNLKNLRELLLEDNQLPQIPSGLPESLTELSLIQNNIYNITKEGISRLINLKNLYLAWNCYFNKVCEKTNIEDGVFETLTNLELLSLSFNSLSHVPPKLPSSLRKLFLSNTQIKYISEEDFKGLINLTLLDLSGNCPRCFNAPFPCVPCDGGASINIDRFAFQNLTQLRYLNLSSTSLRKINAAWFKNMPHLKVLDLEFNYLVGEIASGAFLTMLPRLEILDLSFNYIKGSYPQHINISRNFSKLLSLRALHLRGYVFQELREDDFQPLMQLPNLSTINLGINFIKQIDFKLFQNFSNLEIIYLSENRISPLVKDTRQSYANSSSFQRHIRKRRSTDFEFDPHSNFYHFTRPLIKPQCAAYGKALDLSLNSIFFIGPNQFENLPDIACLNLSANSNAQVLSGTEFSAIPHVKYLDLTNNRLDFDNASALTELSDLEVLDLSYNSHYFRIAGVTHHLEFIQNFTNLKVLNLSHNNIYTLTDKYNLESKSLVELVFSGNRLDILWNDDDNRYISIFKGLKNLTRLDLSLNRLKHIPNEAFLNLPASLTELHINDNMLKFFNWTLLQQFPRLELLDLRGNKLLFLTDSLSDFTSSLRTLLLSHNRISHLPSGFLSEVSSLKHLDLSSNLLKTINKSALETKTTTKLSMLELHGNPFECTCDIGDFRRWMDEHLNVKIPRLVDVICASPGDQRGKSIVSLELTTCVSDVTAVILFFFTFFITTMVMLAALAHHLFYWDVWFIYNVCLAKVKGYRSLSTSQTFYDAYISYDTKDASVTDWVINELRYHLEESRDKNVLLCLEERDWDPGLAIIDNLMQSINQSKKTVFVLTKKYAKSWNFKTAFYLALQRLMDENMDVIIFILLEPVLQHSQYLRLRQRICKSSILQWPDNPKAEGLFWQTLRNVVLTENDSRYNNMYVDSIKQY
Assay: HEK293-Blue-hTLR-8 cells assay (SEAP reporter, R848 stimulation)
Assay type: cell-based
Conditions: HEK293-Blue-hTLR8 cells, R848, 20 hrs; 0.003 is the lowest tested concentration; read-out: HEK/hTLR8 IC50
Method: The following tests were carried out in order to determine the activity of the compounds of formula (I) or (Ia) in HEK293-Blue-hTLR-7/8/9 cells assay.
HEK293-Blue-hTLR-8 cells assay:
A stable HEK293-Blue-hTLR-8 cell line was purchased from InvivoGen (Cat.#: hkb-htlr8, San Diego, California, USA). These cells were originally designed for studying the stimulation of human TLR8 by monitoring the activation of NF-κB. A SEAP (secreted embryonic alkaline phosphatase) reporter gene was placed under the control of the IFN-β minimal promoter fused to five NF-κB and AP-1-binding sites. The SEAP was induced by activating NF-κB and AP-1 via stimulating HEK-Blue hTLR8 cells with TLR8 ligands. Therefore the reporter expression was declined by TLR8 antagonist under the stimulation of a ligand, such as R848, for incubation of 20 hrs. The cell culture supernatant SEAP reporter activity was determined using QUANTI-Blue™ kit (Cat.#: rep-qb1, Invivogen, San Diego, Ca, USA) at a wavelength of 640 nm, a detection medium that turns purple or blue in the presence of alkaline phosphatase.
HEK293-Blue-hTLR8 cells were incubated at a density of 250,000∼450,000 cells/mL in a volume of 170 µL in a 96-well plate in Dulbecco's Modified Eagle's medium (DMEM) containing 4.5 g/L glucose, 50 U/mL penicillin, […], […], 2 mM L-glutamine, 10% (v/v) heat-inactivated fetal bovine serum with addition of 20 µL test compound in a serial dilution in the presence of final DMSO at 1% and 10 µL of 60uM R848 in above DMEM, perform incubation under 37 °C in a CO2 incubator for 20 hrs. Then 20 µL of the supernatant from each well was incubated with 180 µL Quanti-blue substrate solution at 37°C for 2 hrs and the absorbance was read at 620∼655 nm using a spectrophotometer. The signalling pathway that TLR8 activation leads to downstream NF-κB activation has been widely accepted, and therefore similar reporter assay was modified for evaluating TLR8 antagonist.

Row | Compound | IC50 [nM]
1 | C[C@@H]1CN(c2ccc(Cl)c3ncccc23)C[C@H](CN2CCc3cc(N4CCNCC4)ccc3C2)O1 [Example 32, (2R,6S)-4-(8-chloro-5-quinolyl)-2-methyl-6-[(6-piperazin-1-yl-3,4-dihydro-1H-isoquinolin-2-yl)methyl]morpholine] | 17
2 | C[C@@H]1CN(c2ccc(Cl)c3nccnc23)C[C@H](CN2Cc3ccc(N4CCNCC4)cc3C2)O1 [Example 33, (2R,6S)-4-(8-chloroquinoxalin-5-yl)-2-methyl-6-[(5-piperazin-1-ylisoindolin-2-yl)methyl]morpholine] | 5
3 | C[C@@H]1CN(c2ccc(Cl)c3nccnc23)C[C@H](CN2CCc3cc(N4CCNCC4)ccc3C2)O1 [Example 34, (2R,6S)-4-(8-chloroquinoxalin-5-yl)-2-methyl-6-[(6-piperazin-1-yl-3,4-dihydro-1H-isoquinolin-2-yl)methyl]morpholine] | 5
4 | C[C@@H]1CN(c2ccc(C#N)c3nccnc23)C[C@H](CN2Cc3ccc(N4CCN(C5CC5)CC4)cc3C2)O1 [Example 35, 8-[(2S,6R)-2-[[5-(4-cyclopropylpiperazin-1-yl)isoindolin-2-yl]methyl]-6-methyl-morpholin-4-yl]quinoxaline-5-carbonitrile] | 9
5 | CC1CN(c2ccc3c(c2)CN(C[C@H]2CN(c4ccc(C#N)c5nccnc45)C[C@@H](C)O2)C3)CCN1 (stereo partly drawn) [Example 36, 8-[(2R,6S)-2-methyl-6-[[5-(3-methylpiperazin-1-yl)isoindolin-2-yl]methyl]morpholin-4-yl]quinoxaline-5-carbonitrile] | < 3
6 | COCCN1CCN(c2ccc3c(c2)CN(C[C@H]2CN(c4ccc(C#N)c5nccnc45)C[C@@H](C)O2)C3)CC1 [Example 37, 8-[(2S,6R)-2-[[5-[4-(2-methoxyethyl)piperazin-1-yl]isoindolin-2-yl]methyl]-6-methyl-morpholin-4-yl]quinoxaline-5-carbonitrile] | 9
7 | C[C@@H]1CN(c2ccc(C#N)c3nccnc23)C[C@H](CN2Cc3ccc(N4CCNC5(CC5)C4)cc3C2)O1 [Example 38, 8-[(2S,6R)-2-[[5-(4,7-diazaspiro[2.5]octan-7-yl)isoindolin-2-yl]methyl]-6-methyl-morpholin-4-yl]quinoxaline-5-carbonitrile] | 5
8 | C[C@@H]1CN(c2ccc(C#N)c3nccnc23)C[C@H](CN2Cc3ccc(N4CCN5CCCCC5C4)cc3C2)O1 (stereo partly drawn) [Example 40, 8-[(2S,6R)-2-[[5-(1,3,4,6,7,8,9,9a-octahydropyrido[1,2-a]pyrazin-2-yl)isoindolin-2-yl]methyl]-6-methyl-morpholin-4-yl]quinoxaline-5-carbonitrile] | 4
9 | C[C@@H]1CN(c2ccc(C#N)c3nccnc23)C[C@H](CN2Cc3ccc(N4C5CCC4CNC5)cc3C2)O1 [Example 41, 8-[(2S,6R)-2-[[5-(3,8-diazabicyclo[3.2.1]octan-8-yl)isoindolin-2-yl]methyl]-6-methyl-morpholin-4-yl]quinoxaline-5-carbonitrile] | 9
10 | C[C@@H]1CN(c2ccc(C#N)c3ncccc23)C[C@H](CN2Cc3ccc(N4CC5CCC(C4)N5)cc3C2)O1 [Example 42, 5-[(2S,6R)-2-[[5-(3,8-diazabicyclo[3.2.1]octan-3-yl)isoindolin-2-yl]methyl]-6-methyl-morpholin-4-yl]quinoline-8-carbonitrile] | 13
11 | C[C@@H]1CN(c2ccc(C#N)c3ncccc23)C[C@H](CN2Cc3ccc(N4C5CCC4CNC5)cc3C2)O1 [Example 43, 5-[(2S,6R)-2-[[5-(3,8-diazabicyclo[3.2.1]octan-8-yl)isoindolin-2-yl]methyl]-6-methyl-morpholin-4-yl]quinoline-8-carbonitrile] | 12
12 | C[C@@H]1CN(c2ccc(C#N)c3ncccc23)C[C@H](CN2Cc3ccc(N4C5CNCC4COC5)cc3C2)O1 [Example 46, 5-[(2R,6S)-2-methyl-6-[[5-(3-oxa-7,9-diazabicyclo[3.3.1]nonan-9-yl)isoindolin-2-yl]methyl]morpholin-4-yl]quinoline-8-carbonitrile] | 19
13 | C[C@@H]1CN(c2ccc(C#N)c3ncccc23)C[C@H](CN2Cc3ccc(N4CC5(CNC5)C4)cc3C2)O1 [Example 47, 5-[(2S,6R)-2-[[5-(2,6-diazaspiro[3.3]heptan-2-yl)isoindolin-2-yl]methyl]-6-methyl-morpholin-4-yl]quinoline-8-carbonitrile] | 23
14 | CC1c2ccc(N3CCNCC3)cc2CN1C[C@H]1CN(c2ccc(C#N)c3ncccc23)C[C@@H](C)O1 (stereo partly drawn) [Example 48, 5-[(2R,6S)-2-methyl-6-[(1-methyl-5-piperazin-1-yl-isoindolin-2-yl)methyl]morpholin-4-yl]quinoline-8-carbonitrile] | 18
15 | C[C@@H]1CN(c2ccc(C#N)c3nccnc23)C[C@H](CN2Cc3ccc(N4CC5COCC(C4)N5)cc3C2)O1 [Example 49, 8-[(2R,6S)-2-methyl-6-[[5-(3-oxa-7,9-diazabicyclo[3.3.1]nonan-7-yl)isoindolin-2-yl]methyl]morpholin-4-yl]quinoxaline-5-carbonitrile] | 14
16 | CCOC(=O)C1CNCCN1c1ccc2c(c1)CN(C[C@H]1CN(c3ccc(C#N)c4ncccc34)C[C@@H](C)O1)C2 (stereo partly drawn) [Example 50, Ethyl 1-[2-[[(2S,6R)-4-(8-cyano-5-quinolyl)-6-methyl-morpholin-2-yl]methyl]isoindolin-5-yl] piperazine-2-carboxylate] | 33
17 | C[C@@H]1CN(c2ccc(C#N)c3ncccc23)C[C@H](CN2Cc3cc(N4CCNCC4)cc(F)c3C2)O1 [Example 59, 5-[(2S,6R)-2-[(4-fluoro-6-piperazin-1-yl-isoindolin-2-yl)methyl]-6-methyl-morpholin-4-yl]quinoline-8-carbonitrile] | < 3
18 | C[C@@H]1CN(c2ccc(C#N)c3nccnc23)C[C@H](CN2Cc3cnc(N4CCNCC4)cc3C2)O1 [Example 60, 8-[(2R,6S)-2-methyl-6-[(6-piperazin-1-yl-1,3-dihydropyrrolo[3,4-c]pyridin-2-yl)methyl]morpholin-4-yl]quinoxaline-5-carbonitrile] | < 3
19 | C[C@@H]1CN(c2ccc(C#N)c3ncccc23)C[C@H](CN2Cc3cnc(N4CCNCC4)cc3C2)O1 [Example 61, 5-[(2R,6S)-2-methyl-6-[(6-piperazin-1-yl-1,3-dihydropyrrolo[3,4-c]pyridin-2-yl)methyl]morpholin-4-yl]quinoline-8-carbonitrile] | < 3
20 | C[C@@H]1CN(c2ccc(C#N)c3ncccc23)C[C@H](CN2Cc3cnc(N4CCNCC4)nc3C2)O1 [Example 63, 5-[(2R,6S)-2-methyl-6-[(2-piperazin-1-yl-5,7-dihydropyrrolo[3,4-d]pyrimidin-6-yl)methyl]morpholin-4-yl]quinoline-8-carbonitrile] | < 3
21 | C[C@@H]1CN(c2ccc(C#N)c3ncccc23)C[C@H](CN2Cc3ccc(N4CCN[C@@H](C)C4)cc3C2)O1 [Example 64, 5-[(2R,6S)-2-methyl-6-[[5-[(3S)-3-methylpiperazin-1-yl]isoindolin-2-yl]methyl]morpholin-4-yl]quinoline-8-carbonitrile] | 6
